“Also recorded” adds a separate entry of the source.
Tests used:
[1] = system: Isolated, perfused female guinea pig hearts; assay: Dose finding: cardioversion of acetylcholine/burst-pacing induced AF in Langendorff heart; conditions: for cardioversion obtained (animals converted out of animals): within 30 min, AF induced by 1 μmol/L ACh and burst pacing
Procedure: (§1) The isolated heart was prepared as follows. Guinea pigs weighing between 350 and 600 g were anesthetized with i.p. injection of 200 mg/kg pentobarbital. In addition, 1000 IU/kg heparin were injected i.p. Respiration was maintained by artificial ventilation(atm air) through a cannula in the trachea (volume, 12 ml/kg; rate, 60 strokes/min). Upon thoracotomy, a perfusion cannula was inserted and fixed in the aorta for retro-grade perfusion. Hearts were mounted in a vertical Langendorff set-up (Hugo Sachs-Harvard Apparatus GmbH, March-Hugstetten, Germany) and perfused with Krebs-Henseleit solution: 120.4 mM NaCl, 4.0 mM KCl, 2.5 mM CaCl2, 0.6 mM MgSO4, 15.3 mM NaHCO3, 0.6 mM NaH2PO4, and 11.5 mM glucose, pH 7.4, at constant oxygenation with O2/CO2 in a 95/5% mixture at 37° C. Four monophasic action potential (MAP) electrodes were placed on the left atrium, the right atrium, the left ventricle, and right ventricle, respectively. A pacing electrode was placed on the right atrium. The electro-cardiogram (ECG) was obtained with three ECG electrodes placed in close proximity to the heart. All data were acquired using the 16-channel PowerLab system (ADInstruments, Oxfordshire, UK). Pacing stimuli were twice the diastolic threshold and with a duration of 2 milliseconds (ms) unless otherwise stated.
Isolated, perfused female guinea pig hearts from Dunkin Hartley strain (HsdPoc:DH) continuously paced on the right atrium (300 bpm) were allowed to stabilize, and the atrial effective refractory period (aERP) was measured. AF was induced by 1 μmol/L acetylcholine (ACh) combined with burst pacing (50 Hz, 10V). When sustained (>3minutes) AF was obtained, the test compound from a stock concentration of 10 mMol/L in DMSO was added to the perfusate in a concentration of 100 nmol/L for 30 min. If no cardioversion was obtained within 30 minutes, the concentration of the compound in the perfusate was increased to 300 nmol/L. If no cardioversion was obtained within an additional time period of 30 minutes, the concentration of the compound in the perfusate was increased to 1.0 μmol/L. If no cardioversion was obtained within a further time period of 30 minutes, the concentration of the compound in the perfusate was increased to 3.0 μmol/L. If no cardioversion was obtained within an additional time period of 30 minutes, the concentration of the compound in the perfusate was increased to 10.0 μmol/L. If no cardioversion was obtained within an additional time period of 30 minutes, the concentration of the compound in the perfusate was increased to 30.0 μmol/L. Cardioversion was considered obtained if sinus rhythm was obtained within 30 minutes of one of the above mentioned drug applications, and if sustained AF could not be reinduced with burst pacing stimulation immediately after this.

[2] = system: Isolated, perfused female guinea pig hearts; assay: Effect on atrial effective refractory period (aERP) in Langendorff heart; conditions: for prolongation of aERP from baseline values as compared to time matched controls (in words): administered alone, ICA 100 nmol/L, flecainide 1 μmol/L, ranolazine 3 μmol/L; for percentual prolongation of aERP after 30 minutes of perfusion as compared to the baseline: ICA 0.1 μM, flecainide 1 μM, ranolazine 3 μM, ±SEM
Procedure: as §1
(§2) The aERP was measured (10 basic stimuli [called S1] followed by premature S2 stimuli applied with 2-ms decrements) immediately before and at the end of the 30-minute period at pacing rates of 5 Hz and 10 Hz. After the 30 minutes of perfusion with either 100 nmol/L N-(pyridin-2-yl)-4-(pyridin-2-yl)thiazol-2-amine (ICA), 1 μmol/L flecainide, or 3 μmol/L ranolazine, or vehicle, 1 μmol/L ACh was added to the perfusate and induction of AF was attempted 40 times with burst-pacing (50 Hz) for 2 seconds or until sustained (duration>3 min) AF was obtained (test compound dissolved in DMSO in a stock concentration of 10 mMol/L). ICA in a concentration of 100 nmol/L was then tested in combination with either 1 μmol/L flecainide or 3 μmol/L ranolazine using the same protocol as described above in this section.

[3] = system: Isolated, perfused female guinea pig hearts; assay: Effect on AF duration (ACh plus burst pacing) in Langendorff heart; conditions: for reduction of AF duration as compared to time matched controls (in words): administered alone, ICA 100 nmol/L, flecainide 1 μmol/L, ranolazine 3 μmol/L; for Log AF duration: log(10)-transformed, means±SEM, 1 μmol/L ACh, burst pacing 50 Hz, ICA 0.1 μM, flecainide 1 μM, ranolazine 3 μM
Procedure: as §1, §2

[4] = concentration 3.0 μM in perfusate

Compound: O=C(NCC1CCCCN1)c1cc(OCC(F)(F)F)ccc1OCC(F)(F)F (stereo not drawn) [Flecainide, N-(piperidin-2-ylmethyl)-2,5-bis(2,2,2-trifluoroethoxy)benzamide]
- cardioversion obtained (animals converted out of animals) [1, 4]: 2/4
- cardioversion obtained (animals converted out of animals) ([1]; concentration 10.0 μM in perfusate): 2/4
- prolongation of aERP from baseline values as compared to time matched controls (in words) [2]: no significant prolongation of aERP; also recorded: sub-effective
- percentual prolongation of aERP after 30 minutes of perfusion as compared to the baseline ([2]; pacing frequency 5 Hz): 123.0 ± 2.6%
- percentual prolongation of aERP after 30 minutes of perfusion as compared to the baseline ([2]; pacing frequency 10 Hz): 124.6 ± 8.0%
- reduction of AF duration as compared to time matched controls (in words) [3]: no significant reduction of AF duration; also recorded: sub-effective
- Log AF duration [3]: 1.27 ± 0.14

Compound: c1ccc(Nc2nc(-c3ccccn3)cs2)nc1 [ICA, N-(pyridin-2-yl)-4-(pyridin-2-yl)thiazol-2-amine]
- cardioversion obtained (animals converted out of animals) ([1]; concentration 0.3 μM in perfusate): 4/4
- prolongation of aERP from baseline values as compared to time matched controls (in words) [2]: no significant prolongation of aERP; also recorded: does not cause any significant effects
- percentual prolongation of aERP after 30 minutes of perfusion as compared to the baseline ([2]; pacing frequency 5 Hz): 112.5 ± 3.8%
- percentual prolongation of aERP after 30 minutes of perfusion as compared to the baseline ([2]; pacing frequency 10 Hz): 119.3 ± 10.6%
- reduction of AF duration as compared to time matched controls (in words) [3]: no significant reduction of AF duration; also recorded: does not cause any significant effects
- Log AF duration [3]: 1.29 ± 0.15

Compound: COc1ccccc1OCC(O)CN1CCN(CC(=O)Nc2c(C)cccc2C)CC1 (stereo not drawn) [Ranolazine, N-(2,6-dimethylphenyl)-2-[4-[2-hydroxy-3-(2-methoxyphenoxy)-propyl]piperazin-1-yl]acetamide]
- cardioversion obtained (animals converted out of animals) ([1]; concentration 1.0 μM in perfusate): 1/5
- cardioversion obtained (animals converted out of animals) [1, 4]: 2/5
- No cardioversion (animals out of animals) ([1]; stepwise 0.1 to 30.0 μM, 30 min each): 2/5
- prolongation of aERP from baseline values as compared to time matched controls (in words) [2]: no significant prolongation of aERP; also recorded: sub-effective
- percentual prolongation of aERP after 30 minutes of perfusion as compared to the baseline ([2]; pacing frequency 5 Hz): 114.81 ± 12.7%
- percentual prolongation of aERP after 30 minutes of perfusion as compared to the baseline ([2]; pacing frequency 10 Hz): 114.4 ± 9.9%
- reduction of AF duration as compared to time matched controls (in words) [3]: no significant reduction of AF duration; also recorded: sub-effective
- Log AF duration [3]: 1.11 ± 0.23
